Experimental findings from US9782464B2, “Methods and compositions for inhibiting diseases of the central nervous system” (Board of Regents of the University of Nebraska, priority 2008, dated 2017) are described below.

What all share (type): cell-based, mouse
One experiment has as its system SPC (spleen cells). In words: Antigen-specific 3H-thymidine proliferation of SPC from immunized mice.
Another experiment concerns TNF-α. Description: Cytometric bead array of T cells restimulated with antigen. The following applies: T cells from N-4YSyn-immunized donors restimulated in vitro. The method, then:
Triplicate co-cultures of antigen presenting cells (APC) and T cells from PBS, 4YSyn- and N-4YSyn-immunized mice were stimulated with 4YSyn or N-4YSyn. After 24 hours of culture, 50 μl samples were collected, centrifuged, and supernatants frozen at −80° C. until utilized. Frozen supernatants were thawed only once and analyzed using the BD Cytometric Bead Array Mouse Th1/Th2 Kit (BD Biosciences, San Jose, Calif.) according to the manufacturer's instructions.

In another experiment the test system is effector T cells. Description: Treg inhibition of CD3-mediated effector T cell proliferation. The conditions noted are these: Treg from FoxP3-GFP donors, ratio of 1:1. The method, then: Seven days following treatment, mice were sacrificed and single cell suspensions were prepared from inguinal lymph nodes and spleens. CD4+ T cell populations from spleens and lymph nodes were enriched by negative selection with CD4-enrichment columns (R & D Systems) followed by CD25-PE positive selection with AutoMACS (Miltenyi Biotec). […] Proliferation and inhibition assays were performed as described. MPTP-intoxicated mice received an i.v. tail injection of 5×10^7 SPC or 1×10^6 Treg in 0.25 ml of HBSS.

The subject of experiment [1] is anti-CD3 stimulated T cells. Description: PI uptake cytotoxicity of anti-CD3 stimulated T cells (flow cytometry). The conditions noted are these: 24 hours. The method, then:
To assess α-Syn-mediated cytotoxicity, purified T cells were stimulated with anti-CD3 and cultured at a density of 1×10^6 cells/ml for 24 hours in media alone or in the presence of 4YSyn or N-4YSyn at concentrations of 1, 3, 10, or 30 μg/ml. Cells were stained with PI, washed and the percentages of PI^+ dead cells and MFI were analyzed by flow cytometry.
(In general: Flow cytometry measures light scatter and fluorescence of single cells or particles in a stream.)

Take “N-4YSyn: peroxynitrite-nitrated recombinant His-tagged C-terminal 40 aa fragment of mouse α-Syn”: the “proliferative response of SPC to in vitro stimulation with the antigen” value in the experiment on SPC (spleen cells) (B6 mice immunized with N-4YSyn/PBS without adjuvant) is given as “significant lymphocyte proliferative response”; with SPC (spleen cells) (B10.BR mice immunized in CFA/IFA), “significant proliferative responses”. This substance showed a TNF-α levels in the experiment on TNF-α of 26.0 ± 1.2 pg/mL. Also, the “inhibition of effector T cell proliferation to anti-CD3 stimulation by Treg” value with effector T cells is on record as 20%. For the same substance, the “% PI+ T cells” value in experiment [1] (1 μg/ml) is given as 15.9%; in experiment [1] (3 μg/ml) it was 17.9%; in experiment [1] (10 μg/ml), 47.8%; in experiment [1] (30 μg/ml), 91.3%. The “MFI of PI-stained T cells” value was 42.8 in experiment [1] (1 μg/ml), 58.7 in experiment [1] (3 μg/ml), 71.6 in experiment [1] (10 μg/ml) and 106.1 in experiment [1] (30 μg/ml).
